Where two headings read alike, the source gives them in different places.
Experiments:
[1] = tested on: cultured cells; settings: EDC up to 10 mg/mL; cited from earlier work
[2] = FTIR of antibiotic released from hemostatic agents (structural integrity); settings: all released samples
Description: FTIR spectra were collected on a Nicolet Is10 to ensure structural integrity of antibiotics released from the hemostatic agents. Released samples were scanned in the range between 4000 and 800 cm^−1.

[3] = tested on: S. aureus; experiment: Modified Kirby-Bauer disk diffusion test; assay type: cell-based, Staphylococcus aureus; settings: filter paper on S. aureus coated agar
Protocol: Inhibition of S. Aureus 25293 or E. Coli (Migula) Castellani and Chalmers by antibiotic-eluting hemostatic agents was determined through modified Kirby-Bauer disk diffusion tests and microdilution assays. Throughout all Kirby-Bauer tests, agar plates were formed using tryptic soy agar. The plates were subsequently coated with the appropriate strain within its exponential growth phase at a concentration of 10^8 CFU/mL. Filter papers that had been incubated with the hemostatic agents, gelatin, or pure antibiotic equivalent to 24-hour release concentrations for two hours were then immediately placed upon the plates. Zones of inhibition were measured and photographed following 16-18 hours of incubation at 37° C.

[4] = tested on: mammalian cells; settings: cited from earlier work

| Compound | basic chemical stability of released antibiotic [2] | zone of inhibition (ZOI) [3] | also measured |
| --- | --- | --- | --- |
| CCN=C=NCCCN(C)C [EDC, 1-ethyl-3-(3-dimethylaminopropyl) carbodiimide] |  |  | cytotoxicity to cultured cells [1]: negligibly cytotoxic |
| CC(C)(O/N=C(\C(=O)N[C@@H]1C(=O)N2C(C(=O)[O-])=C(C[n+]3ccccc3)CS[C@H]12)c1csc(N)n1)C(=O)O [ceftazidime] | confirmed |  |  |
| CCCCCCCCCC(=O)N[C@@H](Cc1c[nH]c2ccccc12)C(=O)N[C@H](CC(N)=O)C(=O)N[C@@H](CC(=O)O)C(=O)N[C@@H]1C(=O)NCC(=O)N[C@@H](CCCN)C(=O)N[C@@H](CC(=O)O)C(=O)N[C@H](C)C(=O)N[C@@H](CC(=O)O)C(=O)NCC(=O)N[C@H](CO)C(=O)N[C@@H]([C@H](C)CC(=O)O)C(=O)N[C@@H](CC(=O)c2ccccc2N)C(=O)O[C@@H]1C [daptomycin] |  | clear zone of inhibition |  |
| CN[C@H](CC(C)C)C(=O)N[C@H]1C(=O)N[C@@H](CC(N)=O)C(=O)N[C@H]2C(=O)N[C@H]3C(=O)N[C@H](C(=O)N[C@H](C(=O)O)c4cc(O)cc(O)c4-c4cc3ccc4O)[C@H](O)c3ccc(c(Cl)c3)Oc3cc2cc(c3O[C@@H]2O[C@H](CO)[C@@H](O)[C@H](O)[C@H]2O[C@H]2C[C@](C)(N)[C@H](O)[C@H](C)O2)Oc2ccc(cc2Cl)[C@H]1O [vancomycin] | confirmed | clear zone of inhibition | toxicity to mammalian cells ([4]; each component separately): minimally toxic |
| gelatin |  |  | toxicity to mammalian cells [4]: minimally toxic |

— patent publication US12721928B1, “Active agent-eluting hemostatic agents for prevention of surgical site infection” (priority 2020, dated 2026)
